Experimental data published in US10793564B2, “Amino acid compounds and methods of use” (Pliant Therapeutics, Inc., priority 2018, dated 2020).

Molecular target: recombinant human integrin αVβ6 (Homo sapiens (Human), UniProt P06756+P18564)
Test: Solid phase integrin αVβ6 binding assay
Details: inhibition of recombinant TGFβ1 LAP binding to coated integrin, IC50 presented in four ranges, read-out: αvβ6 Inhibition IC50 (nM) - range
Procedure, shortened: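 Plates coated with recombinant human αVβ6 (2 μg/mL) and blocked; compounds competed with TGFβ1 LAP (0.67 μg/mL) in Mn2+ (0.5 mM)/BSA/sucrose TBS for 2 h at 25° C. Bound LAP detected by biotin anti-LAP and peroxidase-streptavidin; IC50 by four-parameter logistic fit.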

Chain of recombinant human integrin αVβ6 (P06756 31-992): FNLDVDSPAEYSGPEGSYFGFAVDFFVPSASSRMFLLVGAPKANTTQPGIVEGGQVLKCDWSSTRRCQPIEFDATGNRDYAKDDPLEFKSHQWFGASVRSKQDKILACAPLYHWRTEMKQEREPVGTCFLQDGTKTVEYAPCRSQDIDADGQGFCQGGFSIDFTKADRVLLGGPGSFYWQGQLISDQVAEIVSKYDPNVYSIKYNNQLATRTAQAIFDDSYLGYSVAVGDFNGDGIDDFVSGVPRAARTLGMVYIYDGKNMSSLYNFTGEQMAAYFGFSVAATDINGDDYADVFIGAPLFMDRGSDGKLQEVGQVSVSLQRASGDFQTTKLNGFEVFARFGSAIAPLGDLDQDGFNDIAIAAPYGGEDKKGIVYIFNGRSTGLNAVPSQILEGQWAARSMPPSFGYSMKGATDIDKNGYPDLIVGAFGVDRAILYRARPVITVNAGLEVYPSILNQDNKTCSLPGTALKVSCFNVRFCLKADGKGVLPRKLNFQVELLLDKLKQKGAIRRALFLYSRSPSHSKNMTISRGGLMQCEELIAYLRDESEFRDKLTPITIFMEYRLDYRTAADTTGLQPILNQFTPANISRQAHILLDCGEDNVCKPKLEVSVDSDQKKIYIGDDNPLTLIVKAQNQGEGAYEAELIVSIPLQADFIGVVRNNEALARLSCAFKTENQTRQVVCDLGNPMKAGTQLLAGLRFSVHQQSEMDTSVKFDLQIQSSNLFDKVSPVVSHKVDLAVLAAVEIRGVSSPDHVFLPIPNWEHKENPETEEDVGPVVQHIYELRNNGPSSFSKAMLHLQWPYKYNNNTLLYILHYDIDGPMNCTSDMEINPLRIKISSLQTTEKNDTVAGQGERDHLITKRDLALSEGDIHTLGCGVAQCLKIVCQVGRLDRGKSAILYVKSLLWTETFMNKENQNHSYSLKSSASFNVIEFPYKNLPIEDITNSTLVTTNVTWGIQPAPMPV
Chain of recombinant human integrin αVβ6 (P18564 22-707): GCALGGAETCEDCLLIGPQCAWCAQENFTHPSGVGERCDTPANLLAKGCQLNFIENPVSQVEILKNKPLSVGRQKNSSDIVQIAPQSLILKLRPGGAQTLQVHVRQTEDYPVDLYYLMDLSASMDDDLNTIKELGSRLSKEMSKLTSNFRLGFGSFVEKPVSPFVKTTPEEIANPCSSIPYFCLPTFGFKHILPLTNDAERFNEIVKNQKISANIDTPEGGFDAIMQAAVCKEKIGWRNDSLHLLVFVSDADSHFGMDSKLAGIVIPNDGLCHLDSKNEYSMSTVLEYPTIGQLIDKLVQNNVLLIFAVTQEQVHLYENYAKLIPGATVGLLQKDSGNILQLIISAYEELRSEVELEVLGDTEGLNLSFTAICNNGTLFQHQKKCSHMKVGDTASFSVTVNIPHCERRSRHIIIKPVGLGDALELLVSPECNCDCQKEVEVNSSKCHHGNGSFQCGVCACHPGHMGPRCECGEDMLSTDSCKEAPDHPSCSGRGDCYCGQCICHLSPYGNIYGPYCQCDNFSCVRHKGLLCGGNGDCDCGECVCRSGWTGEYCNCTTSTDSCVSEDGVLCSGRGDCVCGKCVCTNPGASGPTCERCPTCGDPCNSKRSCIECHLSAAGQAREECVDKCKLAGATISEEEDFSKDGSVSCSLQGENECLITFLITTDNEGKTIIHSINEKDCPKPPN

Row | Compound | IC50 [nM]
1 | COC[C@@H](F)CN(CCCCc1ccc2c(n1)NCCC2)CC[C@H](Nc1ncc(Br)cn1)C(=O)O [Compound 86, (S)-2-((5-bromopyrimidin-2-yl)amino)-4-(((S)-2-fluoro-3-methoxypropyl) (4-(5,6,7,8-tetrahydro-1,8-naphthyridin-2-yl)butyl)amino) butanoic Acid] | 50 to 250
2 | O=C(O)[C@H](CCN(CCCCc1ccc2c(n1)NCCC2)CCOc1ccc(F)cc1)Nc1ncnc2[nH]ncc12 [Compound 143, (S)-2-((1H-pyrazolo[3,4-d]pyrimidin-4-yl)amino)-4-((2-(4-fluorophenoxy)ethyl) (4-(5,6,7,8-tetrahydro-1,8-naphthyridin-2-yl)butyl)amino) butanoic Acid] | 50 to 250
3 | CN(C)C(=O)CN(CCCCc1ccc2c(n1)NCCC2)CC[C@H](Nc1ncc(C(F)(F)F)cn1)C(=O)O [Compound 141, (S)-4-((2-(dimethylamino)-2-oxoethyl) (4-(5,6,7,8-tetrahydro-1,8-naphthyridin-2-yl)butyl)amino)-2-((5-(trifluoromethyl)pyrimidin-2-yl)amino) butanoic Acid] | 50 to 250
4 | CS(=O)(=O)CCN(CCCCc1ccc2c(n1)NCCC2)CC[C@H](Nc1ncc(C(F)(F)F)cn1)C(=O)O [Compound 102, (S)-4-((2-(methylsulfonyl)ethyl) (4-(5,6,7,8-tetrahydro-1,8-naphthyridin-2-yl)butyl)amino)-2-((5-(trifluoromethyl)pyrimidin-2-yl)amino) butanoic Acid] | > 1000

Second part, the compound after the results:

Row | IC50 [nM] | Compound
5 | < 50 | O=C(O)[C@H](CCN(CCCCc1ccc2c(n1)NCCC2)CCOc1ccccc1)Nc1cc(-c2ccccc2)ncn1 [Compound 93, (S)-4-((2-phenoxyethyl) (4-(5,6,7,8-tetrahydro-1,8-naphthyridin-2-yl)butyl)amino)-2-((6-phenylpyrimidin-4-yl)amino) butanoic Acid]
6 | < 50 | Cc1nc(N[C@@H](CCN(CCCCc2ccc3c(n2)NCCC3)CCOc2cncc(F)c2)C(=O)O)c2ccc(F)cc2n1 [Compound 61, (S)-2-((7-fluoro-2-methylquinazolin-4-yl)amino)-4-((2-((5-fluoropyridin-3-yl)oxy)ethyl) (4-(5,6,7,8-tetrahydro-1,8-naphthyridin-2-yl)butyl)amino) butanoic Acid]
7 | < 50 | COCCN(CCCCc1ccc2c(n1)NCCC2)CC[C@H](Nc1cc(C(F)F)ncn1)C(=O)O [Compound 23, (S)-2-((6-(difluoromethyl)pyrimidin-4-yl)amino)-4-((2-methoxyethyl) (4-(5,6,7,8-tetrahydro-1,8-naphthyridin-2-yl)butyl)amino) butanoic Acid]
8 | < 50 | COC[C@@H](F)CN(CCCCc1ccc2c(n1)NCCC2)CC[C@H](Nc1nc(-c2cccnc2)nc2ccccc12)C(=O)O [Compound 109, (S)-4-(((S)-2-fluoro-3-methoxypropyl) (4-(5,6,7,8-tetrahydro-1,8-naphthyridin-2-yl)butyl)amino)-2-((2-(pyridin-3-yl)quinazolin-4-yl)amino) butanoic Acid]
